# Measurements taken from PubChem BioAssay (NCI).
#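 Five compound concentrations were applied to cells in 96-well plates for 48 hours; endpoints were derived by simple linear interpolation of the resulting dose-response curve. TGI: total growth inhibition.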
# Experiments:
# Experiment in all cases: NCI-60 cell line screen, 48 h
# [1] = system: T-47D breast
# [2] = system: SK-MEL-5 melanoma
# [3] = system: SF-268 CNS
# [4] = system: SK-MEL-28 melanoma
# [5] = system: COLO 205 colon
# [6] = system: SNB-19 CNS
# [7] = system: RPMI-8226 leukemia
# [8] = system: OVCAR-5 ovarian
# [9] = system: A549 NSCLC
# [10] = system: K-562 leukemia
# [11] = system: HL-60(TB) leukemia
# [12] = system: HOP-62 NSCLC
# [13] = system: CAKI-1 renal
# [14] = system: NCI-H23 lung
# [15] = system: SR leukemia
# [16] = system: LOX IMVI melanoma
# [17] = system: MCF7 breast
SMILES,TGI [1] [µM],TGI [2] [µM],TGI [3] [µM],TGI [4] [µM],TGI [5] [µM],TGI [6] [µM],TGI [7] [µM],TGI [8] [µM],TGI [9] [µM],TGI [10] [µM],TGI [11] [µM],TGI [12] [µM],TGI [13] [µM],TGI [14] [µM],TGI [15] [µM],TGI [16] [µM],TGI [17] [µM]
Clc1ccc(OCc2nnc3sc(-c4ccc(-c5ccc(Cl)cc5Cl)o4)nn23)cc1,> 100,> 100,> 100,> 100,> 100,> 100,> 100,> 100,> 100,> 100,> 100,> 100,> 100,> 100,> 100,> 100,–
O=C(O)[C@H](Cc1ccccc1)NCCN1CCC[C@H]1C(=O)O,> 100,> 100,> 100,> 100,> 100,> 100,> 100,> 100,> 100,> 100,–,> 100,> 100,> 100,–,–,> 100
O=S(=O)(SC1=NCCN1)c1cccc2ccccc12,–,43,–,> 100,34.4,83.7,66.6,93.5,67.8,63.5,> 10,> 100,59.9,91.2,> 10,> 100,> 100
CC1=NN(c2nc(N)nc(C/C(N)=N/O)n2)C(C)(C)C1,–,> 100,> 100,> 100,> 100,> 100,> 100,> 100,> 100,> 100,> 100,> 100,> 100,> 100,–,> 100,> 100
O=c1cc(N=Nc2ccc(Cl)c(Cl)c2)[nH]c(=O)[nH]1,–,10.2,7.57,3.3,3.36,26.6,5.6,11.2,42.3,4.02,0.941,19.2,5.56,10.7,1.54,3.36,3.99
C=CCN1/C(=C2\SC(=S)N(c3ccc(C)cc3)C2=O)Sc2c1nc[nH]c2=O,–,> 100,> 100,> 100,> 100,> 100,> 100,> 100,> 100,> 100,> 100,> 100,> 100,> 100,–,> 100,–
C[N+](C)(C)c1cc2c(nn1)Nc1ccccc1S2,28.2,29.9,> 100,53.1,38,> 100,36,58.2,> 100,68.9,74,69.8,> 100,> 100,–,43.8,> 100
COc1ccc(NC(=O)C(C)Oc2ccc(OCC3CCCCC3)cc2)cc1 (stereo not given),–,> 100,> 100,> 100,–,> 100,–,–,> 100,> 100,> 100,–,–,68.3,–,> 100,–
Clc1ccc(C[P+]2(c3ccccc3)CCCCC2)cc1,–,43.3,–,> 100,> 100,> 100,> 100,> 100,> 100,> 100,93.9,> 100,–,> 100,> 100,> 100,–
O=C1NNC2NC(=O)C3(NN2C1=O)c1ccccc1-c1ccccc13 (stereo not given),–,> 100,> 100,–,> 100,> 100,–,> 100,> 100,> 100,> 100,> 100,> 100,> 100,> 100,> 100,> 100
CCOC(=O)c1cc(Br)c(-c2cc(C)no2)[nH]1,> 100,47.5,> 100,> 100,34.8,> 100,> 100,> 100,> 100,–,83.6,–,–,> 100,–,> 100,–
c1ccc(C(=NCCC2CNc3ccccc32)c2ccccc2)cc1 (stereo not given),–,> 100,–,> 100,> 100,> 100,> 100,> 100,> 100,> 100,–,> 100,> 100,> 100,> 100,–,> 100
O=C1c2c(ccc3c2CCC3)CC12Cc1ccccc1C2,> 100,24.3,> 100,80.4,53.1,> 100,44.3,> 100,> 100,79.3,34.9,> 100,43.6,> 100,–,31,> 100
CCN(CC)c1ccc(/C=C/C(=O)c2cc(C(C)(C)C)c(O)c(C(C)(C)C)c2)cc1,–,70.9,> 52.9,> 100,14.7,> 100,38.8,> 44.8,> 100,> 100,> 39.2,> 100,> 100,> 100,> 24.5,> 100,> 100
COC(=O)C1=C(C)NC(C)=C(C(=O)OC)C1c1ccc(N=O)cc1,44.7,30.9,43.9,33.4,24.5,> 81.2,5.02,32.9,> 60.3,> 100,> 100,> 55.3,27.9,38.9,–,11.6,37
COc1nc2c(c(=O)n1C)N=C(c1ccccc1)[C@H](C(CC(=O)c1ccccc1)c1ccccc1)C(c1ccccc1)N2 (stereo not given in full),–,> 100,–,> 100,> 100,> 100,> 100,> 100,> 100,> 100,> 100,> 100,> 100,> 100,> 100,> 100,> 100
